# Reference: ChEMBL document CHEMBL4842322, “A naphthalimide-polyamine conjugate preferentially accumulates in hepatic carcinoma metastases as a lysosome-targeted antimetastatic agent” (Eur J Med Chem, 2021)
# How the values were obtained:
# [1] = tested on: A549; assay: Cytotoxicity against human A549 cells assessed as inhibition of cell growth incubated for 48 hrs by MTT assay; type: functional, cell-based; conditions: A549, 48 h
# [2] = tested on: Huh-7; assay: Cytotoxicity against human Huh-7 cells assessed as inhibition of cell growth incubated for 48 hrs by MTT assay; type: functional, cell-based; conditions: Huh-7, 48 h
# [3] = tested on: MCF7; assay: Cytotoxicity against human MCF7 cells assessed as inhibition of cell growth incubated for 48 hrs by MTT assay; type: functional, cell-based; conditions: MCF7, 48 h
# [4] = tested on: Huh-7; assay: Cytotoxicity against human Huh-7 cells assessed as inhibition of cell growth measured after 24 hrs by MTT assay; type: functional, cell-based; conditions: Huh-7, 24 h
# [5] = Antitumor activity against human HCC cells xenografted in BALB/c mouse assessed as inhibition of tumor weight at 5 mg/kg, iv administered once daily for 7 days; type: functional; conditions: 168 h, time 7 day
# [6] = Resistance factor, ratio of IC50 for cisplatin-resistant human A549 cells to IC50 for human A549 cells; type: functional
# [7] = Selectivity index, ratio of IC50 for human HL7702 cells to IC50 for human Huh-7 cells; type: toxicity; conditions: HL7702 cells and Huh-7 cells, read-out: Ratio IC50
# [8] = Antimetastatic activity against human HCC cells xenografted in BALB/c mouse assessed as reduction lung metastatic nodules at 5 mg/kg, iv administered once every 2 days for 14 days; type: functional; conditions: 336 h, time 14 day
# [9] = tested on: L02; assay: Cytotoxicity against human HL7702 cells assessed as inhibition of cell growth measured after 24 hrs by MTT assay; type: cell-based; conditions: L02, 24 h
# [10] = tested on: A549; assay: Cytotoxicity against cisplatin-resistant human A549 cells assessed as inhibition of cell growth incubated for 48 hrs by MTT assay; type: functional, cell-based; conditions: A549, 48 h
# [11] = tested on: MDA-MB-231; assay: Cytotoxicity against human MDA-MB-231 cells assessed as inhibition of cell growth incubated for 48 hrs by MTT assay; type: functional, cell-based; conditions: MDA-MB-231, 48 h
# [12] = Selectivity index, ratio of IC50 for human HL7702 cells to IC50 for human HepG2 cells; type: toxicity; conditions: HL7702 cells and HepG2 cells, read-out: Ratio IC50
# [13] = tested on: HepG2; assay: Cytotoxicity against human HepG2 cells assessed as inhibition of cell growth incubated for 48 hrs by MTT assay; type: functional, cell-based; conditions: HepG2, 48 h
smiles,measurement,setting,value
CN(C)CCN1C(=O)c2cccc3cc(N)cc(c23)C1=O [AMONAFIDE],IC50,[1],23.5 µM
same,IC50,[2],8.52 µM
same,IC50,[3],10.9 µM
same,IC50,[4],8.52 µM
same,inhibition in vivo at 5 mg/kg,[5],46.9%
same,Ratio IC50,[6],0.41
same,selectivity ratio,[7],1.36
same,inhibition in vivo at 5 mg/kg,[8],55.8%
same,IC50,[9],11.6 µM
same,IC50,[10],9.56 µM
same,IC50,[11],15.2 µM
same,selectivity ratio,[12],1.23
NCCCCNCCCCN1C(=O)c2cccc3cc(NC(=O)CN)cc(c23)C1=O,IC50,[1],> 30 µM
same,IC50,[2],28.7 µM
same,IC50,[3],> 30 µM
same,IC50,[10],> 30 µM
same,IC50,[11],> 30 µM
same,IC50,[13],> 30 µM
CN(C)CCN1C(=O)c2cccc3cc(NC(=O)CN)cc(c23)C1=O,IC50,[1],> 30 µM
same,IC50,[2],12.7 µM
same,IC50,[3],> 30 µM
same,IC50,[10],> 30 µM
same,IC50,[11],> 30 µM
same,IC50,[13],> 30 µM
CCCNCCCNCCCN1C(=O)c2cccc3cc(NC(=O)CN)cc(c23)C1=O,IC50,[1],> 30 µM
same,IC50,[2],7.54 µM
same,IC50,[3],> 30 µM
same,IC50,[10],> 30 µM
same,IC50,[11],> 30 µM
same,IC50,[13],> 30 µM
CCCNCCCNCCCNCCCN1C(=O)c2cccc3cc(NC(=O)CN)cc(c23)C1=O,IC50,[1],> 30 µM
same,IC50,[2],14.9 µM
same,IC50,[3],> 30 µM
same,IC50,[10],> 30 µM
same,IC50,[11],> 30 µM
same,IC50,[13],> 30 µM
